Our source for the EC50 values is patent US20080312271A1, “AZABENZIMIDAZOLYL COMPOUNDS” (Pfizer Inc., priority 2006, published 2008).

Where only a bound is given, the exact number is not on record here.

The term EC50 denotes the concentration that produces a half-maximal response.

T1 sequence (Q14416 19-872, species assumed): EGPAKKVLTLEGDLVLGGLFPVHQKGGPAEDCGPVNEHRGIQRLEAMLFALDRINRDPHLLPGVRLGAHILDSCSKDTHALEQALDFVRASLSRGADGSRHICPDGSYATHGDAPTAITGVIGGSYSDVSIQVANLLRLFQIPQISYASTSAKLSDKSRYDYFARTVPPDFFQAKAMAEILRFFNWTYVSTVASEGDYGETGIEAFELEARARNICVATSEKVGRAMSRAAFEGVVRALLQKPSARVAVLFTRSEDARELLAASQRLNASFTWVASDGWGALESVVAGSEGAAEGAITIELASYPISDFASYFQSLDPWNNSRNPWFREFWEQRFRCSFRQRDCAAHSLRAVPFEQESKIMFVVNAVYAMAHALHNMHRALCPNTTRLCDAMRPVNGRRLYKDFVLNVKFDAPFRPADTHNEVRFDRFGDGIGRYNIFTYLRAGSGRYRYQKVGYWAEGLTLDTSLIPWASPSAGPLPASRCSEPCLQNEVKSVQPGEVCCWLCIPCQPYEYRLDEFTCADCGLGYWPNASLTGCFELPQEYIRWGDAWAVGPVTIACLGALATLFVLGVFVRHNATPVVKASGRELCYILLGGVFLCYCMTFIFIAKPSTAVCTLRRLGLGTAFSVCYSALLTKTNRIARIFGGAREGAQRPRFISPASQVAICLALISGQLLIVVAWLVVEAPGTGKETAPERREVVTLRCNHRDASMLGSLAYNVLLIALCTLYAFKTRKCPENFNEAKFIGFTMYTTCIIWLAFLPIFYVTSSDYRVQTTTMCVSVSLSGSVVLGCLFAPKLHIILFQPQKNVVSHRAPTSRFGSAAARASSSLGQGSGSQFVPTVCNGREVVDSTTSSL

One experiment has as its target T1, mGluR2 receptor (metabotropic glutamate receptor 2) (Homo sapiens, UniProt Q14416).
T1 construct: expressed in transfected cells
As to the kind of experiment: mGluR2 Potentiator Screen, FLIPR, EC10-EC20 glutamate challenge.
Conditions: not given
Format: cell-based. In outline:
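Potentiator assay in HEK cells stably expressing mGluR2 with Gα15, glutamine-depleted overnight, loaded with Fluo-4 plus probenecid and GPT/pyruvate to remove glutamate. Peak fluorescence ratio curve-fitted, with maximum set by on-plate standards.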
As for `CC(C)Oc1ccc([C@H]2CCN(Cc3nc4cnccc4n3C)C[C@H]2C)cc1Cl` (relative stereo) [compound 193], the EC50 came to 590 nM.

For `Cn1c(CN2CCC(c3ccc(C(F)(F)F)cc3)CC2)nc2ccncc21` [compound 93], the EC50 was determined as 196 nM.

As for `CCOc1ccc(Cl)cc1C1CCN(Cc2nc3cccnc3n2C)CC1` [compound 42], the EC50 came out at 501 nM.

Regarding `C[C@@H]1CN(Cc2nc3cnccc3n2C)CC[C@@H]1c1ccc(C(F)(F)F)c(F)c1` (relative stereo) [compound 148], the EC50 worked out at 71.4 nM.

For the compound `CCOc1ccc(C2CCN(Cc3nc4ncccc4n3C)CC2)cc1` [compound 98], the EC50 was 2270 nM.

Regarding `CC(C)Oc1ccc([C@H]2CCN(Cc3nc4ncccc4n3C)C[C@H]2C)c(F)c1` (relative stereo) [compound 166], the EC50 was determined as 82.3 nM.

Regarding `CCCOc1ccc(Cl)cc1C1CCN(Cc2nc3cccnc3n2C)CC1` [compound 40], the 50% effective concentration (EC50) amounted to 410 nM.

Take `Cn1c(CN2CCC(c3cccc(C(C)(C)C)c3)CC2)nc2ncccc21` [compound 79]: the EC50 amounted to 124 nM.

Turning to `COc1ccc(C2CCN(Cc3nc4ncccc4n3C)CC2)cc1` [compound 81], the EC50 is 9770 nM.

For `C[C@@H]1CN(Cc2nc3cnccc3n2C)CC[C@@H]1c1ccc2c(c1)CCO2` (relative stereo) [compound 201], the EC50 was > 1070 nM.

As for `C[C@@H]1CN(Cc2nc3cnccc3n2C)CC[C@@H]1c1ccc(C(F)(F)F)cc1Cl` (single isomer, unassigned) [compound 172], the 50% effective concentration (EC50) came out at 48.5 nM.

Consider `C[C@@H]1CN(Cc2nc3cnccc3n2C)CC[C@@H]1c1ccc(OC(F)F)cc1F` (relative stereo) [compound 199], for which the EC50 was found to be 122 nM.

For the compound `C[C@@H]1CN(Cc2nc3cnccc3n2C)CC[C@@H]1c1ccc(OC(F)F)cc1` (relative stereo) [compound 178], the EC50 is > 1350 nM.

With `CC(C)Oc1ccc([C@H]2CCN(Cc3nc4ncccc4n3C)C[C@H]2C)cc1Cl` (relative stereo) [compound 195], the EC50 came to 506 nM.

For the compound `Cc1ccc(C)c(C2CCN(Cc3nc4ncccc4n3C)CC2)c1` [compound 61], the EC50 was determined as 290 nM.

Consider `C[C@@H]1CN(Cc2nc3ncccc3n2C)CC[C@@H]1c1ccc(OC(F)F)cc1` (relative stereo) [compound 177], for which the EC50 stood at 429 nM.

Consider `Cn1c(CN2CCC(c3cc(F)cc(F)c3)CC2)nc2ncccc21` [compound 91], for which the EC50 worked out at 985 nM.

As to `CC(C)Oc1ccc([C@H]2CCN(Cc3nc4ncccc4n3C)C[C@H]2C)c(Cl)c1` (single isomer, unassigned) [compound 221], the EC50 came out at 77.8 nM.

As to `CC(C)Oc1ccc([C@H]2CCN(Cc3nc4cnccc4n3C)C[C@H]2C)c(F)c1` (relative stereo) [compound 167], the EC50 was > 172 nM.

Consider `Cn1c(CN2CCC(c3cc(C(F)(F)F)ccc3F)CC2)nc2ncccc21` [compound 58], for which the EC50 was determined as 5950 nM.

`Cc1ccc([C@H]2CCN(Cc3nc4ncccc4n3C)C[C@H]2C)c(Cl)c1` (relative stereo) [compound 210]: the EC50 worked out at 62.6 nM.

With `COc1ccc([C@H]2CCN(Cc3nc4cnccc4n3C)C[C@H]2C)c(C(F)(F)F)c1` (relative stereo) [compound 174], the EC50 was > 1690 nM.

For the compound `C[C@@H]1CN(Cc2nc3cnccc3n2C)CC[C@@H]1c1ccc(Cl)cc1F` (relative stereo) [compound 116], the EC50 stood at 49.8 nM.

For the compound `Cn1c(CN2CCC(c3ccccc3C(F)(F)F)CC2)nc2cccnc21` [compound 50], the EC50 was 406 nM.

As for `Cn1c(CN2CCC(c3ccc(Cl)cc3F)CC2)nc2cnccc21` [compound 113], the EC50 turned out to be 81 nM.

For `Cn1c(CN2CCC(c3ccc(F)cc3F)CC2)nc2cccnc21` [compound 85], the EC50 turned out to be 199 nM.

As to `Cn1c(CN2CCC(F)(c3ccc(C(F)(F)F)cc3)CC2)nc2ncccc21` [compound 99], the EC50 stood at 434 nM.

Regarding `C[C@@H]1CN(Cc2nc3cnccc3n2C)CC[C@@H]1c1ccc(C(F)(F)F)cc1Cl` (single isomer, unassigned) [compound 171], the EC50 came out at 1520 nM.

As for `Cc1cc(OC(F)(F)F)ccc1[C@H]1CCN(Cc2nc3ncccc3n2C)C[C@H]1C` (relative stereo) [compound 164], the EC50 is < 74.3 nM.

Turning to `C[C@@H]1CN(Cc2nc3cnccc3n2C)CC[C@@H]1c1ccc(Cl)cc1C(F)(F)F` (relative stereo) [compound 208], the EC50 stood at 110 nM.

For the compound `COc1cc(C(F)(F)F)ccc1[C@H]1CCN(Cc2nc3ncccc3n2C)C[C@H]1C` (relative stereo) [compound 114], the EC50 was determined as 42.8 nM.

`CC1CN(Cc2nc3ncccc3n2C)CCC1c1ccc(C(F)(F)F)cc1` (stereo not drawn) [compound 70]: the EC50 came to 111 nM.

For the compound `C[C@@H]1CN(Cc2nc3ncccc3n2C)CC[C@@H]1c1ccc(Cl)cc1Cl` (single isomer, unassigned) [compound 186], the EC50 amounted to 611 nM.

For `C[C@@H]1CN(Cc2nc3ncccc3n2C)CC[C@@H]1c1ccc(C(F)(F)F)cc1` (single isomer, unassigned) [compound 119], the EC50 is > 1990 nM.

Turning to `C[C@@H]1CN(Cc2nc3cnccc3n2C)CC[C@@H]1c1ccc(Cl)cc1F` (single isomer, unassigned) [compound 140], the EC50 was found to be 2050 nM.

As to `Cc1ccc(C2CCN(Cc3nc4ncccc4n3C)CC2)cc1` [compound 104], the EC50 is 710 nM.

For the compound `C#CCOc1ccc(Cl)cc1C1CCN(Cc2nc3ncccc3n2C)CC1` [compound 45], the EC50 worked out at 72.6 nM.

Consider `C[C@@H]1CN(Cc2nc3ncccc3n2C)CC[C@@H]1c1ccc(OC(F)(F)F)cc1` (relative stereo) [compound 157], for which the EC50 is 277 nM.

With `C[C@@H]1CN(Cc2nc3ncccc3n2C)CC[C@@H]1c1ccc(C(F)(F)F)cc1C(F)(F)F` (relative stereo) [compound 149], the EC50 stood at 24.8 nM.

As to `COc1cc(F)ccc1C1CCN(Cc2nc3cnccc3n2C)CC1` [compound 88], the EC50 was 372 nM.

Turning to `C[C@@H]1CN(Cc2nc3cnccc3n2C)CC[C@@H]1c1ccc(Cl)cc1Cl` (relative stereo) [compound 156], the EC50 came out at 88.2 nM.

With `COc1ccc(C(F)(F)F)cc1C1CCN(Cc2nc3ncccc3n2C)CC1` [compound 55], the EC50 was determined as 211 nM.

`CC(C)Oc1ccc([C@H]2CCN(Cc3nc4ncccc4n3C)C[C@H]2C)c(Cl)c1` (relative stereo) [compound 169]: the EC50 is 174 nM.

Regarding `C[C@@H]1CN(Cc2nc3cnccc3n2C)CC[C@@H]1c1ccc(OC(F)(F)F)cc1` (relative stereo) [compound 158], the EC50 turned out to be 262 nM.

`CCOc1ccc(Cl)cc1C1CCN(Cc2nc3ncccc3n2C)CC1` [compound 41]: the EC50 was found to be 4810 nM.

For the compound `C[C@@H]1CN(Cc2nc3cnccc3n2C)CC[C@@H]1c1ccc(C(F)(F)F)cc1` (relative stereo) [compound 71], the EC50 was found to be 75 nM.

As to `C[C@@H]1CN(Cc2nc3cnccc3n2C)CC[C@@H]1c1ccc(C(F)(F)F)cc1Cl` (relative stereo) [compound 152], the EC50 was 66.3 nM.

Consider `COc1ccccc1C1CCN(Cc2nc3ncccc3n2C)CC1` [compound 51], for which the 50% effective concentration (EC50) came out at 1540 nM.

`C[C@@H]1CN(Cc2nc3cnccc3n2C)CC[C@@H]1c1ccc(OC(F)(F)F)cc1F` (single isomer, unassigned) [compound 159]: the EC50 was < 31.3 nM.

Turning to `C[C@@H]1CN(Cc2nc3cnccc3n2C)CC[C@@H]1c1ccc(F)c(C(F)(F)F)c1` (relative stereo) [compound 198], the EC50 stood at 176 nM.

Turning to `CC(C)Oc1ccc([C@H]2CCN(Cc3nc4cnccc4n3C)C[C@H]2C)c(F)c1` (single isomer, unassigned) [compound 219], the EC50 came to 60.6 nM.

Regarding `COc1cc(C(F)(F)F)ccc1C1CCN(Cc2nc3cnccc3n2C)CC1` [compound 63], the EC50 was found to be 834 nM.

As for `CCOc1ccc([C@H]2CCN(Cc3nc4ncccc4n3C)C[C@H]2C)cc1` (relative stereo) [compound 120], the EC50 stood at 639 nM.

Take `Cn1c(CN2CCC(c3cc(Cl)ccc3F)CC2)nc2ncccc21` [compound 75]: the EC50 amounted to 324 nM.

As for `COc1cc(C(F)(F)F)ccc1[C@H]1CCN(Cc2nc3ncccc3n2C)C[C@H]1C` (single isomer, unassigned) [compound 130], the EC50 amounted to 787 nM.

Staying with this experiment, now noted: mGluR2 potentiator screen, FLIPR, EC10-EC20 glutamate challenge.
Turning to `Cc1cc(OC(F)(F)F)ccc1C1CCN(Cc2nc3ncccc3n2C)CC1` [compound 241], the EC50 came out at 50.7 nM.

In the case of `C[C@@H]1CN(Cc2nc3ncccc3n2C)CC[C@@H]1c1ccc(OC(F)(F)F)cc1Cl` (single isomer, unassigned) [compound 255], the EC50 was determined as 76.9 nM.

Take `COc1ccc(C2CCN(Cc3nc4ncccc4n3C)CC2)c(C(F)(F)F)c1` [compound 271]: the EC50 was determined as 494 nM.

As to `C[C@@H]1CN(Cc2nc3ncccc3n2C)CC[C@@H]1c1ccc(OC(F)F)cc1Cl` (single isomer, unassigned) [compound 244], the EC50 stood at 36 nM.

For the compound `C[C@@H]1CN(Cc2nc3cnccc3n2C)CC[C@@H]1c1ccc(OC(F)F)cc1Cl` (single isomer, unassigned) [compound 246], the EC50 worked out at 99.9 nM.

`COc1cc(OC(F)(F)F)ccc1C1CCN(Cc2nc3ncccc3n2C)CC1` [compound 281]: the EC50 worked out at 99.7 nM.

`C[C@@H]1CN(Cc2nc3cnccc3n2C)CC[C@@H]1c1ccc(F)cc1OC(F)F` (relative stereo) [compound 275]: the EC50 came out at 96.5 nM.

Turning to `C[C@@H]1CN(Cc2nc3ncccc3n2C)CC[C@@H]1c1ccc(OC(F)F)cc1Cl` (single isomer, unassigned) [compound 245], the EC50 amounted to 262 nM.

On to `Cn1c(CN2CCC(c3ccc(OC(F)F)cc3)CC2)nc2ncccc21` [compound 264], for which the EC50 was 554 nM.

For `C[C@@H]1CN(Cc2nc3ncccc3n2C)CC[C@@H]1c1ccc(OC(F)(F)F)cc1Cl` (single isomer, unassigned) [compound 256], the EC50 is > 704 nM.

Consider `COc1cc(OC(F)(F)F)ccc1C1CCN(Cc2nc3cnccc3n2C)CC1` [compound 280], for which the EC50 worked out at 33.9 nM.
